Active and inactive are the calls of the source.
Legend:
[1] = target: T1, Alkaline phosphatase, tissue-nonspecific isozyme (Homo sapiens, UniProt P05186); assay: TNAP enzyme inhibition by screening hits, dose response, selectivity assay for mouse IAP inhibitor project, biochemical, human TNAP, uHTS hits (AID 488906); type: functional
T1 sequence (P05186 whole entry): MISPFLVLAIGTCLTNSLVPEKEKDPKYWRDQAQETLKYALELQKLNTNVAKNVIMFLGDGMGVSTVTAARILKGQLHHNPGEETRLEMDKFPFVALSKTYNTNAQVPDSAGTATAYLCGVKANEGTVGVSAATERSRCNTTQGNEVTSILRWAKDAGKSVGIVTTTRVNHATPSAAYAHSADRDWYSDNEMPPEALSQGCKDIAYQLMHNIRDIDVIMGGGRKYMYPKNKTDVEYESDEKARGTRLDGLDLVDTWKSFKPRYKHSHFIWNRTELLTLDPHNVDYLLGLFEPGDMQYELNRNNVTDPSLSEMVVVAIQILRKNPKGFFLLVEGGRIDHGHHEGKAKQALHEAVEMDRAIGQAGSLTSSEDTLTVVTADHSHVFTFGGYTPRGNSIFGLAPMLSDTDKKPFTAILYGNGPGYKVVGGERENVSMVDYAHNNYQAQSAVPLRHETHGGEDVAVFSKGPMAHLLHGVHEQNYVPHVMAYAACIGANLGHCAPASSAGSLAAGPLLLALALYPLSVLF

[2] = target: Intestinal-type alkaline phosphatase (Mus musculus, UniProt P24822); assay: PubChem AID 488874; type: functional
[3] = HeLa cell cytotoxicity, dose response, cytotoxicity control for MgcRacGAP inhibitor project (AID 624300); type: functional
INS1 = assay: beta cell apoptosis inhibitors, cytokine rescue, dose response, luminescence, retest (AID 449756); type: functional, cell-based; settings: Rattus norvegicus;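 further: cell death triggered by IL-1 beta plus TNF-alpha plus IFN-gamma mixture; protective hits raise ATP signal compared with cytokine alone wells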
BJ [4] = assay: cytotoxicity toward Ras-transformed BJeLR fibroblasts, dose response, cell-based, alamar blue fluorescence, cherrypicked samples (AID 2631); type: functional; settings: Homo sapiens;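 further: confirmatory dose-response assay in RAS-dependent BJ fibroblasts engineered with TERT, LT and ST, with cytotoxicity read by fluorescence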
[5] = target: Sphingosine 1-phosphate receptor 1 (Homo sapiens, UniProt P21453); type: functional;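 further: Tango beta-arrestin reporter U2OS cells stimulated with S1P near its EC80; inhibitor potency meaning antagonism of receptor activation by the natural agonist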
[6] = inhibitors of firefly luciferase expression or activity, dose response, H4 neuroglioma cells, luminescence (AID 1990); type: functional, cell-based
BJ [7] = assay: cytotoxicity toward BJ-TERT fibroblasts, dose response, cell-based, RAS-independent, luminescence (AID 1933); type: functional; settings: Homo sapiens
BJ [8] = assay: cytotoxicity toward BJ-TERT-LT-ST fibroblasts, dose response, cell-based, RAS-independent, luminescence (AID 1935); type: functional; settings: Homo sapiens;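 further: BJ fibroblasts immortalized with TERT plus LT and ST oncogenes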
[9] = target: Serine/threonine-protein kinase D3 (Homo sapiens, UniProt O94806); type: functional;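 further: determined within a kinase panel screen, with PRKCN as the panel member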
[10] = target: Glycogen synthase kinase-3 alpha (Homo sapiens, UniProt P49840); type: functional;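 further: GSK3A result taken from a broad kinome-wide kinase panel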
[11] = target: MAP kinase-interacting serine/threonine-protein kinase 2 (Homo sapiens, UniProt Q9HBH9); type: functional
[12] = target: Cyclin-dependent kinase 9 (Homo sapiens, UniProt P50750); type: functional;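 further: value from the CDK9 entry of a kinome-spanning kinase panel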
[13] = target: Proto-oncogene tyrosine-protein kinase receptor Ret (Homo sapiens, UniProt P07949); type: functional;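 further: measured within a kinome-wide profiling panel, RET as the panel member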
[14] = target: Leukocyte tyrosine kinase receptor (Homo sapiens, UniProt P29376); assay: Navigating the Kinome. Panel member name: LTK; type: functional
[15] = target: Hepatocyte growth factor receptor (Homo sapiens, UniProt P08581); type: functional;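 further: kinase panel profiling across the kinome, with MET as the panel member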
[16] = target: Ribosomal protein S6 kinase alpha-5 (Homo sapiens, UniProt O75582); type: functional
[17] = target: Receptor tyrosine-protein kinase erbB-2 (Homo sapiens, UniProt P04626); assay: Navigating the Kinome. Panel member name: ERBB2; type: functional
[18] = target: BDNF/NT-3 growth factors receptor (Homo sapiens, UniProt Q16620); type: functional;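 further: NTRK2 measured as one member of a broad kinome-wide kinase profiling panel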
[19] = target: Maternal embryonic leucine zipper kinase (Homo sapiens, UniProt Q14680); type: functional
[20] = target: Proto-oncogene tyrosine-protein kinase Src (Homo sapiens, UniProt P12931); type: functional;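 further: SRC entry within a kinome-wide kinase profiling panel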
[21] = target: Dual specificity protein kinase CLK2 (Homo sapiens, UniProt P49760); type: functional
[22] = target: Phosphorylase b kinase gamma catalytic chain, liver/testis isoform (Homo sapiens, UniProt P15735); type: functional;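 further: PHKG2 measured as one member of a kinome-wide kinase panel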
[23] = target: Glycogen synthase kinase-3 beta (Homo sapiens, UniProt P49841); type: functional;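 further: value comes from a broad kinome profiling panel, with GSK3B as the panel member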
[24] = target: cGMP-dependent protein kinase 1 (Homo sapiens, UniProt Q13976); type: functional;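 further: value from a kinome panel screen with PRKG1 as the panel member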
[25] = target: Serine/threonine-protein kinase DCLK1 (Homo sapiens, UniProt O15075); type: functional;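 further: affinity for DCLK1 (listed as DCAMKL1) measured as one member of a kinome-wide kinase profiling panel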
[26] = target: Platelet-derived growth factor receptor alpha (Homo sapiens, UniProt P16234); assay: Navigating the Kinome. Panel member name: PDGFRA; type: functional
[27] = target: Inhibitor of nuclear factor kappa-B kinase subunit epsilon (Homo sapiens, UniProt Q14164); assay: Navigating the Kinome. Panel member name: IKBKE; type: functional
[28] = target: Protein kinase C iota type (Homo sapiens, UniProt P41743); type: functional;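 further: measured within a kinome-wide kinase panel, PRKCI as panel member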
Insulin receptor = Insulin receptor (Homo sapiens, UniProt P06213); type: functional;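 further: insulin receptor kinase tested as one member of a kinome-wide kinase panel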
[29] = target: Tyrosine-protein kinase Fyn (Homo sapiens, UniProt P06241); type: functional
[30] = target: Mitogen-activated protein kinase 1 (Homo sapiens, UniProt P28482); type: functional
[31] = target: Protein-tyrosine kinase 2-beta (Homo sapiens, UniProt Q14289); type: functional
[32] = target: Serine/threonine-protein kinase PLK3 (Homo sapiens, UniProt Q9H4B4); type: functional
[33] = target: Tyrosine-protein kinase SYK (Homo sapiens, UniProt P43405); type: functional
[34] = target: Mitogen-activated protein kinase kinase kinase kinase 5 (Homo sapiens, UniProt Q9Y4K4); type: functional;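 further: measured as one member of a kinome-spanning kinase panel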
[35] = target: Tyrosine-protein kinase Srms (Homo sapiens, UniProt Q9H3Y6); type: functional;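 further: SRMS measured as one member of a kinome-wide kinase profiling panel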
[36] = target: Macrophage colony-stimulating factor 1 receptor (Homo sapiens, UniProt P07333); type: functional;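 further: value comes from the Navigating the Kinome screening panel, CSF1R member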
[37] = THP-1 cell cytotoxicity, dose response, cytotoxicity control for Vif-APOBEC3G degradation inhibitor project, THP-1 cells (AID 1117359); type: functional; settings: Human immunodeficiency virus 1, THP-1
ORF 73 = ORF 73 (Human herpesvirus 8, UniProt O40947); assay: inhibitors of C-LANA binding to LBS DNA, dose response, biochemical, fluorescence polarization, cherry-picked samples (AID 504725); set-up: species or system Human gammaherpesvirus 8;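 further: fluorescence polarization of a labeled DNA duplex reporting LANA DNA binding; potency is for inhibitors that block LANA binding to the DNA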
Sequence of ORF 73 (O40947 whole entry): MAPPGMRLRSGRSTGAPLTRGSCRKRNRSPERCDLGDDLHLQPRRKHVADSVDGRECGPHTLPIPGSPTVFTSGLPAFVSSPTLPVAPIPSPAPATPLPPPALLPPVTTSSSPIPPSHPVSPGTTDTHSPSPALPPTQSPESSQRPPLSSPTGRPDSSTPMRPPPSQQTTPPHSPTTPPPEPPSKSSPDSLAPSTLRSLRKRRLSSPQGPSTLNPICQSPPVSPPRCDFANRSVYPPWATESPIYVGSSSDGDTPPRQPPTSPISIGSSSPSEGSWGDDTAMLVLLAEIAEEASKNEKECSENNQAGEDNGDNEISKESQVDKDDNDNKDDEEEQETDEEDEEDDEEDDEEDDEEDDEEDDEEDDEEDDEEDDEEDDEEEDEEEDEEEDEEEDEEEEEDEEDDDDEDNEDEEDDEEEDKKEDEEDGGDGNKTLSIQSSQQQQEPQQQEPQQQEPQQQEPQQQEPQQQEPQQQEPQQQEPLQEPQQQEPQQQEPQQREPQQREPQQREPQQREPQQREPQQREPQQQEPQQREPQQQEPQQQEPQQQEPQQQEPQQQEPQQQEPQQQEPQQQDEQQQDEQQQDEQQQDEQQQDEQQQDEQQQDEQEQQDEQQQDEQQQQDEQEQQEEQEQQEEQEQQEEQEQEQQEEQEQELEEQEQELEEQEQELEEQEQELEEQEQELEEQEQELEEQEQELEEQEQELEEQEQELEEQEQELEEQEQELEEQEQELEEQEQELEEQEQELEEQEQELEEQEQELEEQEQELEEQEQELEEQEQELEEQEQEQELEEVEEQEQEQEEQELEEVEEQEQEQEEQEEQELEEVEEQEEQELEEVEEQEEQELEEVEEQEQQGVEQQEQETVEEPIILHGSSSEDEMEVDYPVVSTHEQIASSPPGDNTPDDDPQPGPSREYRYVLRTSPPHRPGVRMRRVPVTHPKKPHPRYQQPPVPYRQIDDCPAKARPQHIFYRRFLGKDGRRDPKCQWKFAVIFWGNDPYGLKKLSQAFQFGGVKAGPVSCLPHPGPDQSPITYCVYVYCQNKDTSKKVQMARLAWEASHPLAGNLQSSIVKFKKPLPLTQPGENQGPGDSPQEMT

Sequence of Intestinal-type alkaline phosphatase (P24822 whole entry): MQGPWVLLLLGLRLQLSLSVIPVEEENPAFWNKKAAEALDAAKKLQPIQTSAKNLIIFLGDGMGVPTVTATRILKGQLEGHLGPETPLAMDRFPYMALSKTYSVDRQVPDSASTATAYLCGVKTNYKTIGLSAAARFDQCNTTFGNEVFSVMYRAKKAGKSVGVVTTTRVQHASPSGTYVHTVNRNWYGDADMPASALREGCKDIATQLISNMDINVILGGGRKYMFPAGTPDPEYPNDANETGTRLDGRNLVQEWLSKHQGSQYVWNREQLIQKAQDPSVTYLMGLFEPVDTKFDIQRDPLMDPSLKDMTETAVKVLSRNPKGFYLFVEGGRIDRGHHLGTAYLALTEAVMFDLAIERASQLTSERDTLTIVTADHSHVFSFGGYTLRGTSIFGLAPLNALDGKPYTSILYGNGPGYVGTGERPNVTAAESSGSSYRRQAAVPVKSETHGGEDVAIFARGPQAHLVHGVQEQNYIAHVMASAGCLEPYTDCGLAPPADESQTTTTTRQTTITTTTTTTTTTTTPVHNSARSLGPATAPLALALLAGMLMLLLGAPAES
Sequence of Serine/threonine-protein kinase PLK3 (Q9H4B4 whole entry): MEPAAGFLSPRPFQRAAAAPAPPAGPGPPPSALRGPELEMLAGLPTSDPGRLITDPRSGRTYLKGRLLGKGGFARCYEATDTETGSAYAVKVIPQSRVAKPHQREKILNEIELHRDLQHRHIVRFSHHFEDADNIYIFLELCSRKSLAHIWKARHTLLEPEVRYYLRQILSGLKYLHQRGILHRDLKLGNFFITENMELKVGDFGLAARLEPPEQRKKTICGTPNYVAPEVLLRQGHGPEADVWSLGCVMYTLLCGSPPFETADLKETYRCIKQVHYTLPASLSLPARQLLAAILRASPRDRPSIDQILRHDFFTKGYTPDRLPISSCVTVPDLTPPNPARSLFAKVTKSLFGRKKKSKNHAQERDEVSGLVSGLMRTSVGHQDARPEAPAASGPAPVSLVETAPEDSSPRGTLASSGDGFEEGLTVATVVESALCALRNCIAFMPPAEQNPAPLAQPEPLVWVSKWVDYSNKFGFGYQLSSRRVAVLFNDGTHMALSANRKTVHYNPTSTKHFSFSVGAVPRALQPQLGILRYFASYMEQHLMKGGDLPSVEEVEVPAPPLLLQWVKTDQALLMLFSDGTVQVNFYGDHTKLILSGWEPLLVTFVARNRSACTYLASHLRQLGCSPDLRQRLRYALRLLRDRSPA
Sequence of cGMP-dependent protein kinase 1 (Q13976 whole entry): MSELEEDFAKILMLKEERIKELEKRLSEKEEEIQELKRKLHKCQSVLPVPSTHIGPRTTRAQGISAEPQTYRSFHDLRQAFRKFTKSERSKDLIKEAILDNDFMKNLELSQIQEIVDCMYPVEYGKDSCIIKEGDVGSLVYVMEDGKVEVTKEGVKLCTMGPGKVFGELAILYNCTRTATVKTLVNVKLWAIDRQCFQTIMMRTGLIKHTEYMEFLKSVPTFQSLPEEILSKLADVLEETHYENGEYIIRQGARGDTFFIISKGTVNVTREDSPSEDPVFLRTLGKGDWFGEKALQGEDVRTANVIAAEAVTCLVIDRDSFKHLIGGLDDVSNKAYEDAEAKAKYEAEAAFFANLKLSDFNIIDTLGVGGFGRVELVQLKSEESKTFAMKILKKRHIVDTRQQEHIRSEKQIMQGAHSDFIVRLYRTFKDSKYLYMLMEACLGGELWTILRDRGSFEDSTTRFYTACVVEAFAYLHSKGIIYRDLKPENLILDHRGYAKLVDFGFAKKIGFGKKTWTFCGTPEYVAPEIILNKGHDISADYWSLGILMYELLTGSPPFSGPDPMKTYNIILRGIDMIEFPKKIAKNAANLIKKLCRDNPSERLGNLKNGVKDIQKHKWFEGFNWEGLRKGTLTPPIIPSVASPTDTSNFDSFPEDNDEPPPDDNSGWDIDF
Sequence of MAP kinase-interacting serine/threonine-protein kinase 2 (Q9HBH9 whole entry): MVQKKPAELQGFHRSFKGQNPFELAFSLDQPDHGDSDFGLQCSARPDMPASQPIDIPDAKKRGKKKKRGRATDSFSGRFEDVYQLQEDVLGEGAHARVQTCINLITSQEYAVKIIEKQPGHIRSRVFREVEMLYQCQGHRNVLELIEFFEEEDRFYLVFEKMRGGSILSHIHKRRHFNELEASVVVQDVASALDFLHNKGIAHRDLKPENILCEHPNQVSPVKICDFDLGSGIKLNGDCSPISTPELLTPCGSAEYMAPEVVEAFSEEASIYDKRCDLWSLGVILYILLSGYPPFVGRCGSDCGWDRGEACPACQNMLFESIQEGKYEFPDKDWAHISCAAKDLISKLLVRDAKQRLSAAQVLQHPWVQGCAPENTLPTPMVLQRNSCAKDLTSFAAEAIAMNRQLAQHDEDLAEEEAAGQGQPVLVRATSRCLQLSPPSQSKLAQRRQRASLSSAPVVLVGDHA
Sequence of Inhibitor of nuclear factor kappa-B kinase subunit epsilon (Q14164 whole entry): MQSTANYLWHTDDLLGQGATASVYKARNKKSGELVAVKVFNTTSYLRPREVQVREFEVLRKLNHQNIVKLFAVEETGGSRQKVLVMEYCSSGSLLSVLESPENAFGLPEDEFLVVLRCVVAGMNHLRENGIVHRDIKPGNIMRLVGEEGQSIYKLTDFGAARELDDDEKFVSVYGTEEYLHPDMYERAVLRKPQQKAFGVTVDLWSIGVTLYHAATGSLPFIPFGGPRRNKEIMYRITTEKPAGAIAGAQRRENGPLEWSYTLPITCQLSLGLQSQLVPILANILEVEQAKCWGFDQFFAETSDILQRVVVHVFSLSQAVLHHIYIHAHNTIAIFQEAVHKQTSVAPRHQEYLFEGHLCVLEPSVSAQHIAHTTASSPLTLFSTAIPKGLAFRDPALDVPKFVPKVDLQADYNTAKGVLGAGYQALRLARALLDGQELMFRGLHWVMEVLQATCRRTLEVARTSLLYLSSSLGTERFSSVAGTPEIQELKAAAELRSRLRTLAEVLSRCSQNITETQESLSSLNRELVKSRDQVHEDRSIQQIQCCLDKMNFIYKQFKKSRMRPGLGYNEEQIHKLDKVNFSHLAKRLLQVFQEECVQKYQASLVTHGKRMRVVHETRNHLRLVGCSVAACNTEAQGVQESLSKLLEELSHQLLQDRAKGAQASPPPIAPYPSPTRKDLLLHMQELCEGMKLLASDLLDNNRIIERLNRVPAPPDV
Sequence of Tyrosine-protein kinase Fyn (P06241 whole entry): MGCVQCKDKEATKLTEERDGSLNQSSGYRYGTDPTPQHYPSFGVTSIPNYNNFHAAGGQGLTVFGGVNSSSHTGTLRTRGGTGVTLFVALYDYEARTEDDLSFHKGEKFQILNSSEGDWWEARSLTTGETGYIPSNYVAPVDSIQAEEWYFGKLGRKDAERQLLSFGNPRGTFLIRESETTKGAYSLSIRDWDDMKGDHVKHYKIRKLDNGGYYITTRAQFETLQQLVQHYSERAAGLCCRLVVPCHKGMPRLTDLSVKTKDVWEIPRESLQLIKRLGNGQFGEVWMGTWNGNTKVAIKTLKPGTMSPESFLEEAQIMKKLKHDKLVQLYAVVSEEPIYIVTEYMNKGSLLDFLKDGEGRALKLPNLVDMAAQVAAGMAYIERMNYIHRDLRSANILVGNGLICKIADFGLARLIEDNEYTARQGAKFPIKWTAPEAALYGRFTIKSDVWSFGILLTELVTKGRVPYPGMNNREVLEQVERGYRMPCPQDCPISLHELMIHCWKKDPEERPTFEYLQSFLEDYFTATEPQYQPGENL
Sequence of Mitogen-activated protein kinase 1 (P28482 whole entry): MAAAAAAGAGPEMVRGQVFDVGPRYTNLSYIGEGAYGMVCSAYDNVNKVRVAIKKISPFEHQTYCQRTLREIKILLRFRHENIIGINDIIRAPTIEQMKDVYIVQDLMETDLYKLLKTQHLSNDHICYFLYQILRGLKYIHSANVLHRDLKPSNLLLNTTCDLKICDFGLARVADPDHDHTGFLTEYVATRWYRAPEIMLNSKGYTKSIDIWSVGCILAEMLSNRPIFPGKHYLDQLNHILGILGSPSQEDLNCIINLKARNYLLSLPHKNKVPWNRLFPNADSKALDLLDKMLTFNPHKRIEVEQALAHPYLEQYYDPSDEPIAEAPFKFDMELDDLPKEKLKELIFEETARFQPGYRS

O=C(NN1C(=O)CSC1=S)C(=O)NN1C(=O)CSC1=S
IC50 [1]: > 100 µM (inactive) | IC50 [2]: 3.84 µM (active)

Cc1ccc2[nH]c(/C(C#N)=C/c3ccc(O)c(O)c3)nc2c1
CC50 [3]: 100 µM (active)

COC(=O)C1CN(C#N)N(c2ccc(Cl)cc2)C12c1ccccc1-c1ccccc12 (stereo not given)
AC50 (INS1): 2.5 µM (active) | EC50 (BJ [4]): 0.563 µM (inconclusive) | IC50 [5]: 5.76 µM (active) | EC50 [6]: > 120 µM (not active) | EC50 (BJ [7]): 1.93 µM (active) | EC50 (BJ [8]): 2.49 µM (inconclusive)

Nc1noc2cccc(-c3cccc(O)c3)c12
Ki [9]: > 10 µM (inactive) | Ki [10]: > 50.1 µM (inactive) | Ki [11]: 1 µM (active) | Ki [12]: 15.8 µM (active) | Ki [13]: 0.794 µM (active) | Ki [14]: 1.26 µM (active) | Ki [15]: > 12.6 µM (inactive) | Ki [16]: 0.631 µM (active) | Ki [17]: > 1.58 µM (inactive) | Ki [18]: > 20 µM (inactive) | Ki [19]: > 1.58 µM (inactive) | Ki [20]: 1.26 µM (active) | Ki [21]: > 20 µM (inactive) | Ki [22]: > 5.01 µM (inactive) | Ki [23]: > 50.1 µM (inactive) | Ki [24]: > 2 µM (inactive) | Ki [25]: > 10 µM (inactive) | Ki [26]: 6.31 µM (active) | Ki [27]: 39.8 µM (active) | Ki [28]: > 5.01 µM (inactive) | Ki (Insulin receptor): > 5.01 µM (inactive) | Ki [29]: > 7.94 µM (inactive) | Ki [30]: > 7.94 µM (inactive) | Ki [31]: > 1.58 µM (inactive) | Ki [32]: > 7.94 µM (inactive) | Ki [33]: > 1.58 µM (inactive) | Ki [34]: > 7.94 µM (inactive) | Ki [35]: > 1.58 µM (inactive) | Ki [36]: > 5.01 µM (inactive)

O=C1NC(=S)S/C1=C\C=C\c1ccc([N+](=O)[O-])o1
CC50 [37]: 4.04 µM (active) | AC50 (ORF 73): 71.4 µM (active)
